Reference: article PMC9228535, “Antistaphylococcal Activities and ADME-Related Properties of Chlorinated Arylcarbamoylnaphthalenylcarbamates” (Pharmaceuticals, 2022)
In brackets after ≈: the same amount, converted by molar mass.

What was measured:
[1] = Lipophilicity determination by RP-HPLC (log k, log D); assay type: physicochemical; details: RP-HPLC; for log D6.5: MeOH 72%/acetate buffered saline pH 6.5; for log D7.4: MeOH 72%/acetate buffered saline pH 7.4; for log k: MeOH 72%/water 28%
Procedure: Lipophilicity was measured by reversed-phase high performance liquid chromatography (RP-HPLC) under isocratic conditions with methanol as the organic modifier in the aqueous mobile phase and the logarithm of the capacity factor k was calculated, which is used as the lipophilicity index converted to the log P scale. In addition to the log k values, the logarithm of the distribution coefficient DpH at pH 6.5 and 7.4 was determined to clarify the behavior of the compounds under physiological conditions and possible ionization. Instead of water, a buffer of suitable pH was used as part of the mobile phase. In addition to the above-mentioned experimental methods, commercially available ChemBioDraw Ultra 13.0 and ACD/Percepta ver. […] In addition to lipophilicity, other parameters discussed in Ro5, such as molecular weight, number of H-bond donors/acceptors, as well as parameters not reported in Ro5, but characterizing the physicochemical properties of the prepared molecules, such as number of rotatable bonds, were predicted using ACD/Percepta. Moreover, for each R substituent, bulkiness expressed as molar volume (MV [cm^3]), a parameter describing the tail length/branching of each carbamates, was calculated.
A HPLC separation module Agilent 1200 Series (Agilent Technologies, Santa Clara, CA, USA) equipped with a Dual Absorbance Detector (DAD SL G1315C, Agilent Technologies) was used. A chromatographic column Symmetry® C18 5 μm, 4.6 × 250 mm, Part No. W21751W016 (Waters Corp, Milford, MA, USA) was used. The HPLC separation process was monitored by ChemStation for LC 3D systems (Agilent Technologies). […] The total flow of the column was 1.0 mL/min, injection 20 μL, column temperature 40 °C, and sample temperature 10 °C. The detection wavelength of 210 nm was chosen. A KI methanolic solution was used for the determination of the dead times (tD). Retention times (tR) were measured in minutes. The capacity factors k were calculated according to the formula k = (tR − tD)/tD, where tR is the retention time of the solute, and tD is the dead time obtained using an unretained analyte. The distribution coefficients DpH were calculated according to the formula DpH = (tR − tD)/tD. Each experiment was repeated three times.

MRSA 63718 [2] = experiment: MIC, microtitration broth method; assay type: cell-based; details: Staphylococcus aureus, MRSA, 24 h
Procedure: (§1) All the investigated compounds were screened for in vitro antibacterial activity against the reference and quality control strain Staphylococcus aureus ATCC 29213 and clinical isolates of methicillin-resistant S. aureus (MRSA) 63718, SA 630, and SA 3202 [14]. Activities are expressed as the minimum inhibitory concentrations (MICs), see Table 2. In addition to the MICs, the minimum bactericidal concentrations (MBCs) were also determined.
(§2) In vitro antibacterial activity of the synthesized compounds was evaluated against representatives of multidrug-resistant bacteria, three clinical isolates of methicillin-resistant S. aureus: clinical isolate of animal origin, MRSA 63718 (Department of Infectious Diseases and Microbiology, Faculty of Veterinary Medicine, University of Veterinary Sciences Brno, Czech Republic), carrying the mecA gene; and MRSA SA 630 [46] and MRSA SA 3202 [46] (National Institute of Public Health, Prague, Czech Republic), both of human origin. Suspected colonies were confirmed by PCR; a 108bp fragment specific for S. aureus was detected. All isolates were tested for the presence of the mecA gene encoding methicillin resistance. […] Vancomycin-susceptible methicillin-susceptible S. aureus (VS-MSSA) ATCC 29213, obtained from the American Type Culture Collection, was used as the reference and quality control strain. Enterococcus faecalis ATCC 29212 was obtained from the American Type Culture Collection and used as the reference and quality control strain.
(§3) The minimum inhibitory concentrations (MICs) were evaluated by the microtitration broth method according to the CLSI [64, 65] with some modifications. The compounds were dissolved in DMSO (Sigma, St. Louis, MO, USA) to get a concentration […] and diluted in a microtitration plate in an appropriate medium, namely, Cation Adjusted Mueller–Hinton (CaMH, Oxoid, Basingstoke, UK) for staphylococci (S. aureus ATCC 29213, clinical isolates of MRSA 63718, SA 630, and SA 3202) and brain heart infusion (BHI, Oxoid) for E. faecalis ATCC 29212, to reach the final concentration of 256-0.125 µg/mL. The plate was inoculated by the tested microorganisms. The final concentration of bacterial cells was 10^5 for bacteria. Ampicillin (Sigma) was used as reference drugs. A drug-free control and a sterility control were included. The plates were incubated for 24 h at 37 °C for staphylococci and E. faecalis ATCC 29212 (stability evaluation of the carbamates, see Supplementary materials, Table S1). […] The experiments were repeated three times.

MRSA SA 3202 [3] = experiment: MIC, microtitration broth method; assay type: cell-based; details: Staphylococcus aureus, 24 h
Procedure: as §1, §2, §3

MRSA SA 630 [4] = experiment: MIC, microtitration broth method; assay type: cell-based; details: Staphylococcus aureus, 24 h
Procedure: as §1, §2, §3

[5] = test system: Staphylococcus aureus ATCC 29213; experiment: MIC, microtitration broth method; assay type: cell-based; details: ATCC29213, SA = S. aureus ATCC 29213, 24 h, read-out: MIC
Procedure: as §1, §2, §3

MRSA 63718 [6] = experiment: MBC, agar aliquot subculture method; assay type: cell-based; details: Staphylococcus aureus, MRSA
Procedure: as §1
(§4) For the S. aureus and MRSA isolates, the agar aliquot subculture method was used as a test for bactericidal agents. After the MIC value determination, the inoculum was transferred to Mueller–Hinton (Oxoid) agar using a multipoint inoculator. The plates were incubated in a thermostat at 37 °C for 24 h. The lowest concentration of test compound at which ≤5 colonies were obtained was then evaluated as MBC, corresponding to a 99.9% decrease in CFU relative to the original inoculum.

MRSA SA 3202 [7] = experiment: MBC, agar aliquot subculture method; assay type: cell-based; details: Staphylococcus aureus
Procedure: as §1, §4

MRSA SA 630 [8] = experiment: MBC, agar aliquot subculture method; assay type: cell-based; details: Staphylococcus aureus
Procedure: as §1, §4

[9] = test system: Staphylococcus aureus ATCC 29213; experiment: MBC, agar aliquot subculture method; assay type: cell-based; details: ATCC29213, SA = S. aureus ATCC 29213, read-out: MBC
Procedure: as §1, §4

[10] = test system: Enterococcus faecalis ATCC 29212; experiment: MIC, microtitration broth method; assay type: cell-based; details: ATCC29212; EF = Enterococcus faecalis, 24 h; read-out: MIC
Procedure: as §2, §3

THP-1 cells = experiment: In vitro cytotoxicity assay (WST-1); assay type: cell-based; details: Homo sapiens; THP-1, 24 h, ± SD, n = 6; read-out: IC50
Procedure: Preliminary in vitro cytotoxicity screening of the investigated compounds was performed using human monocytic leukemia THP-1 cells, see Table 2. The ability to inhibit the human cancer cell viability (IC50) of the compounds was compared to camptothecin toxicity (0.16 ± 0.07 μM). […] However, these values are up to two orders of magnitude higher than their significant antistaphyloccocal concentrations. This fact is also taken into account in the calculated selectivity index (SI), Table 2, where for only three compounds the SI is <20, while for the rest of the agents SI is >20, and for some derivatives even 100 and more. Thus, based on all these observations, it can be concluded that all the tested derivatives can be considered as in vitro non-toxic compounds for the subsequent design of new therapeutic agents.
The human THP-1 cell line (European Collection of Cell Cultures, Salisbury, UK) was cultured in RPMI 1640 medium supplemented with 10% fetal bovine serum, 2% L-glutamine, 1% penicillin, and streptomycin at 37 °C with 5% CO2. Cells were passaged at approximately 1-week intervals. All the tested compounds were prepared and dissolved as mentioned in our previous work.

SMILES	log D6.5 [1]	log D7.4 [1]	log k [1]	MIC (MRSA 63718 [2])	MIC (MRSA SA 3202 [3])	MIC (MRSA SA 630 [4])	MIC [5]	MBC (MRSA 63718 [6])	MBC (MRSA SA 3202 [7])	MBC (MRSA SA 630 [8])	MBC [9]	MIC [10]	IC50 (THP-1 cells)
CCCCCNC(=O)Oc1c(C(=O)Nc2cc(Cl)c(Cl)cc2Cl)ccc2ccccc12 [Compound 5, 2-[N-(2,4,5-Trichlorophenyl)carbamoyl]naphthalen-1-yl pentyl carbamate]	1.3072	1.3168	1.3051	0.261 µM (≈ 0.125 µg/mL)	0.131 µM (≈ 0.0629 µg/mL)	0.261 µM (≈ 0.125 µg/mL)	0.067 µM (≈ 0.0321 µg/mL)	0.261 µM (≈ 0.125 µg/mL)	0.131 µM (≈ 0.0629 µg/mL)	0.521 µM (≈ 0.25 µg/mL)	0.067 µM (≈ 0.0321 µg/mL)	267 µM (≈ 128 µg/mL)	3.44 ± 0.04 µM
CCCCCCNC(=O)Oc1c(C(=O)Nc2cc(Cl)c(Cl)cc2Cl)ccc2ccccc12 [Compound 6, 2-[N-(2,4,5-Trichlorophenyl)carbamoyl]naphthalen-1-yl hexyl carbamate]	1.4899	1.4990	1.4883	0.253 µM (≈ 0.125 µg/mL)	0.253 µM (≈ 0.125 µg/mL)	0.253 µM (≈ 0.125 µg/mL)	0.128 µM (≈ 0.0632 µg/mL)	0.253 µM (≈ 0.125 µg/mL)	0.253 µM (≈ 0.125 µg/mL)	0.506 µM (≈ 0.25 µg/mL)	0.128 µM (≈ 0.0632 µg/mL)	259 µM (≈ 128 µg/mL)	3.2 ± 0.19 µM
O=C(NCCc1ccccc1)Oc1c(C(=O)Nc2cc(Cl)c(Cl)cc2Cl)ccc2ccccc12 [Compound 13, 2-[N-(2,4,5-Trichlorophenyl)carbamoyl]naphthalen-1-yl 2-phenylethyl carbamate]	1.2473	1.2470	1.2450	0.123 µM (≈ 0.0632 µg/mL)	0.123 µM (≈ 0.0632 µg/mL)	0.062 µM (≈ 0.0319 µg/mL)	0.062 µM (≈ 0.0319 µg/mL)	0.123 µM (≈ 0.0632 µg/mL)	0.243 µM (≈ 0.125 µg/mL)	0.973 µM (≈ 0.5 µg/mL)	0.062 µM (≈ 0.0319 µg/mL)	125 µM (≈ 64.2 µg/mL)	2.79 ± 0.28 µM
CC[C@@]1(O)C(=O)OCc2c1cc1n(c2=O)Cc2cc3ccccc3nc2-1 [CMT, camptothecin, reference compound]													0.16 ± 0.07 µM
